{"source": "paper PMC4576851", "about": "(Organic & biomolecular chemistry, 2015)", "target": "p97 (valosin containing protein, VCP, cdc48) (Homo sapiens, UniProt P55072)", "sequence (P55072 2-806)": "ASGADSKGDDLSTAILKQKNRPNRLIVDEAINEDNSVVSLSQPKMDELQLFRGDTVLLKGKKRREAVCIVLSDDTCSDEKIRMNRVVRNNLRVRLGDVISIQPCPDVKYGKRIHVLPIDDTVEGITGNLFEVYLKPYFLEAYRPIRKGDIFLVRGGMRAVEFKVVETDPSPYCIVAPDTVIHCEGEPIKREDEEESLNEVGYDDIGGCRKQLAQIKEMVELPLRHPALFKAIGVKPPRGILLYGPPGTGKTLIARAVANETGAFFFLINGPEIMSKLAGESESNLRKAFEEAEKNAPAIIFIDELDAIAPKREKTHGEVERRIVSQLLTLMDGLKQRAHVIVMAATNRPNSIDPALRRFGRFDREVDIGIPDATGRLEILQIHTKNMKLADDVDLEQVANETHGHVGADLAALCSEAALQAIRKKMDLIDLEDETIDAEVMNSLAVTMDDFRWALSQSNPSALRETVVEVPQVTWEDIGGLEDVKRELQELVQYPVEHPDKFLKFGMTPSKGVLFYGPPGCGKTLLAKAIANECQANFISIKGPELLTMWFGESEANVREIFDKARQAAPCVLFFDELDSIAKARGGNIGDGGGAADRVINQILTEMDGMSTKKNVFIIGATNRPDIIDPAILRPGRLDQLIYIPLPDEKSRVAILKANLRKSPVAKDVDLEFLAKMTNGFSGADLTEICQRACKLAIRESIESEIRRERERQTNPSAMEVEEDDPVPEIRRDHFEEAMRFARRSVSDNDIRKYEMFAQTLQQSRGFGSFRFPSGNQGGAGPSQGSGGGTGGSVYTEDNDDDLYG", "assay": "p97 ATPase inhibition assay", "type": "biochemical"}
{"smiles": "C=C1OC(=O)C2(C1=O)[C@H](/C=C/C=C/CCC)C=C[C@@H](O)[C@@H]2O", "note": "(stereo partly shown) [compound 2, oxaspirol B]", "values": [{"measurement": "IC50", "value": "31.2 ± 3", "unit": "µM"}]}
